The source of these data is US20220204971A1, “Compositions and Methods for Inhibiting Cancers and Viruses” (Icahn School of Medicine at Mount Sinai, priority 2018, published 2022).

One data set concerns HSATII. Description: HSATII RNA RT-qPCR in HCMV-infected HFFs treated with CHX or GCV. Conditions: for HSATII levels: HFFs, HCMV 1 TCID50/cell, GCV added after 2 h. The format is cell-based, human. On the procedure: FIGS. 2a-d disclose HSATII induction levels in cells infected with active virus as compared to UV-irradiated virus. a HFFs were infected with untreated or UV-irradiated HCMV (TB40/E-GFP) at 3 TCID50/cell, RNA samples were collected at specified times. b HFFs were treated with CHX or DMSO, as a solvent control, 24 h before HCMV (TB40/E-GFP) infection at 1 TCID50/cell. RNA samples were collected at 24 hpi. c HFFs were infected with HCMV (TB40/E-GFP) at 1 TCID50/cell for 2 h and then media was changed for one containing GCV or DMSO as a solvent control. RNA samples were collected at 24 and 48 hpi. d Tetracycline-inducible […] and/or IE2 MRC-5 and ARPE-19 cells were treated with doxycycline. RNA samples were collected at indicated times. a-d RT-qPCR was performed using HSATII-specific primers. GAPDH was used as an internal control. n=3. Data are presented as a fold change mean±SD. a-c ***P<0.001, ****P<0.0001 by the unpaired, two-tailed t-test with (b, c) or without (a) Welch's correction. ns—not significant. Open circles represent single data points.
(§1) Cyclohexamide (Sigma-Aldrich) and ganciclovir (Sigma-Aldrich) were dissolved in DMSO and used at 100 μg ml^−1 or 50 1.1M concentrations, respectively. Doxycycline (Sigma-Aldrich) was dissolved in water and used at 2 μg ml^−1. Puromycin was dissolved in water and used at 1.5 1.1 g ml^−1 (MRC-5) or 21.1 g ml^−1 (ARPE-19). G418 was dissolved in water and used at 800 μg ml-1 (MRC-5) or 1 mg ml-1 G418 (ARPE-19).
For quantitative reverse transcription PCR (qRT-PCR) analysis, cells were collected in QIAzol Lysis Reagent (Qiagen). To fractionate RNA, DNA and proteins chloroform was added; samples were spun at 12,000×g for 15 min. at 4° C. […] Quantitative PCR (qPCR) was performed using SYBR Green master mix (Applied Biosystems by Thermo Fisher Scientific, Foster City, Calif.) on the QuantStudio 6 Flex-Real Time PCR System (Applied Biosystems by Thermo Fisher Scientific). […]
(§2) Transcript levels were analyzed using the […] method and GAPDH or B2M were used as an internal control. […]

The test system of another data set is UL99. Description: UL99 late gene RNA RT-qPCR in HCMV-infected HFFs treated with GCV. Format: cell-based. Conditions: HCMV 1 TCID50/cell, 48 hpi. As to the method:
FIG. 12 discloses the accumulation of UL99 gene RNA in the presence of DMSO or GCV in infected cells. HFFs were infected with HCMV (TB40/E-GFP; 1 TCID50/cell) for 2 h and then media was changed for one containing GCV or DMSO as a solvent control. RNA samples were collected at 48 hpi. RT-qPCR was performed using UL99-specific primers. GAPDH was used as an internal control. Data were averaged from at least three experiments and are presented as a fold change mean (SD).
as §1
For quantitative reverse transcription PCR (qRT-PCR) analysis, cells were collected in QIAzol Lysis Reagent (Qiagen). […] Quantitative PCR (qPCR) was performed using SYBR Green master mix (Applied Biosystems by Thermo Fisher Scientific, Foster City, Calif.) on the QuantStudio 6 Flex-Real Time PCR System (Applied Biosystems by Thermo Fisher Scientific). […]
as §2

The subject of another data set is HCMV (TB40-epi). Description: HCMV infectious particle yield from LNA-transfected ARPE-19 epithelial cells, PFU/ml. Format: cell-based. Conditions: ARPE-19, PFU/ml; 96 hpi. On the procedure:
FIG. 26 discloses the effect of HSATII knockdown using four different HSAT-II LNAs on the production of HCMV infectious particles from human retinal pigment cells. Media samples were collected at 96 hpi from ARPE-19 cells transfected with NT-LNA or different HSATII-LNAs 24 h before HCMV (TB40-epi) infection at 1 TCID50/cell. PFU/ml values were determined. Data were averaged from at least three independent experiments and are presented as a mean (SD). Unpaired, two-tailed t-test was used to measure significance. One, two, three or four asterisks represent p<0.05, p<0.01, p<0.001 or p<0.0001, respectively.
Media samples were collected at 96 hpi from ARPE-19 cells transfected with NT-LNA or different HSATII-LNAs 24 h before HCMV (TB40-epi) infection at 1 TCID50/cell. PFU/ml values were determined. Data were averaged from at least three independent experiments and are presented as a mean (SD). […] Cells treated with the combined HSATII-LNA #1 and HSATII-LNA #2 produced only ˜0.6% of intracellular and ˜1% extracellular HCMV viral particles produced by control cells treated with NT-LNA. To compare, cells treated with HSATII-LNA #1 produced ˜33% of intracellular and ˜6% of extracellular HCMV viral particles produced by control cells treated with NT-LNA. Cells treated with HSATII-LNA #2 produced 23% of intracellular and 6% of extracellular HCMV viral particles produced by control cells treated with NT-LNA. Unpaired, two-tailed t-test was used to measure significance. One, two, three or four asterisks represent p<0.05, p<0.01, p<0.001 or p<0.0001, respectively.
Locked nucleic acid oligonucleotides were designed to target identified, highly abundant HSATII transcripts from different chromosomal loci. […] Cells were collected at the indicated time post infection using QIAzol buffer (QIAGEN, Hilden, Germany) and stored at −80° C. until sample processing.

Consider `C[C@@H]1C[C@@H]([C@H](O)CC2CC(=O)NC(=O)C2)C(=O)[C@@H](C)C1` [Cycloheximide], for which the “reduction of HSATII accumulation compared to solvent control” value in the data set with HSATII (HFFs treated with CHX 24 h before HCMV (TB40/E-GFP) infection at 1 TCID50/cell, 24 hpi) is recorded as 33 fold.

With `Nc1nc(O)c2ncn(COC(CO)CO)c2n1` [ganciclovir], the “accumulation of RNA from the late UL99 gene” value in the data set on UL99 is “blocked”. Moreover, the HSATII levels result in the data set on HSATII (24 hpi) and with HSATII (48 hpi) was “did not change” each time.

Take “HSATII-LNA #1: locked nucleic acid oligonucleotide targeting HSATII transcripts, 5′-CCATTCGATAATTCCG-3′ (locked nucleic acid oligonucleotide, LNA positions and linkages not given here)”: in the data set on HCMV (TB40-epi), the “extracellular HCMV viral particles, % of those produced by control cells treated with NT-LNA” value is approximately 6% and the “intracellular HCMV viral particles, % of those produced by control cells treated with NT-LNA” value is given as approximately 33%.

“HSATII-LNA #2: locked nucleic acid oligonucleotide targeting HSATII transcripts, 5′-GATTCCATTCGATGAT-3′ (locked nucleic acid oligonucleotide, LNA positions and linkages not given here)”: in the data set with HCMV (TB40-epi), the “extracellular HCMV viral particles, % of those produced by control cells treated with NT-LNA” value stood at 6% and the “intracellular HCMV viral particles, % of those produced by control cells treated with NT-LNA” value amounted to 23%.
